Reference: publication PMC9082524, “Aromatic heterocycle galectin-1 interactions for selective single-digit nM affinity ligands” (RSC Advances, 2018)
Read-outs that look alike come from different tables or passages of the source.

Experiments:
[1] = molecular target: T1, Human galectin-1 (Homo sapiens, UniProt P09382); assay: Competitive fluorescence polarization, galectin-1 with high-affinity fluorescent probe 25; format: binding; parameters: made in house; conditions: for Kd / Kd Galectin-1: galectin-1 50 nM, probe 25 1 nM, 100 nM BSA, rt, average ± SEM; for Galectin-3/galectin-1: ratio of Kd values, Table 2 (thiodigalactosides), galectin-1 selectivity over galectin-3
T1 sequence (P09382 whole entry): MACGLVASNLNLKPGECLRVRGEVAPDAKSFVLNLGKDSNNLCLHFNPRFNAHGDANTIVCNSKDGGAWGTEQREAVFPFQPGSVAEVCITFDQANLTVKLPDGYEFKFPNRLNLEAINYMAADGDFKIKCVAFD

[2] = tested on: MCF-7; assay: MTT cytotoxicity assay, MCF-7; conditions: MCF-7 tumor cell line, 72 h, 0.04 μM to 40 μM
[3] = tested on: JIMT-1; assay: MTT cytotoxicity assay, JIMT-1; conditions: JIMT-1 tumor cell line, 72 h, 0.04 μM to 40 μM
[4] = tested on: MCF-10A; assay: MTT cytotoxicity assay, MCF-10A; conditions: MCF-10A normal cell line, 72 h, 0.04 μM to 40 μM
[5] = molecular target: T1, Human galectin-1; assay: Competitive fluorescence polarization, galectin-1 (performed as described in ref 13); conditions: for Galectin-3/galectin-1: ratio of Kd values, Table 1 (monogalactosides)
[6] = tested on: MCF-10A
[7] = tested on: JIMT-1
[8] = tested on: MCF-7
[9] = molecular target: T2, galectin-3 (Homo sapiens, UniProt P17931); assay: Competitive fluorescence polarization, galectin-3 (performed as described in ref 13)
T2 sequence (P17931 whole entry): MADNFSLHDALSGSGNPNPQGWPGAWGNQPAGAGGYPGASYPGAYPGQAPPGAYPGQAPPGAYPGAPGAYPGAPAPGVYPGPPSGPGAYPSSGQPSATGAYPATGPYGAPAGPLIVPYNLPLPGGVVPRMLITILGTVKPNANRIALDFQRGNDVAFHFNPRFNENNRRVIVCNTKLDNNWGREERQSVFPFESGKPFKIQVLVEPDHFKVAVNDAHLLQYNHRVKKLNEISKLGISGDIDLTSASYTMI

[10] = molecular target: T2, galectin-3; assay: Competitive fluorescence polarization, galectin-3 with improved-affinity probe (as described in ref 15); format: binding; parameters: made in house; conditions: average ± SEM

OC[C@H]1O[C@@H](S[C@@H]2O[C@H](CO)[C@H](O)[C@H](n3cc(-c4ccsc4)nn3)[C@H]2O)[C@H](O)[C@@H](n2cc(-c3ccsc3)nn2)[C@H]1O [compound 1]
Kd [1]: 0.0061 ± 0.001 µM | Kd Galectin-1 [1]: single-digit | Cytotoxicity [2]: non-cytotoxic | Cytotoxicity [3]: non-cytotoxic | Cytotoxicity [4]: non-cytotoxic

Cc1ccc(S[C@@H]2O[C@H](CO)[C@H](O)[C@H](n3cc(C4CCCC4)nn3)[C@H]2O)cc1 [compound 4, p-Methylphenyl 3-deoxy-3-(4-cyclopentyl-1H-1,2,3-triazol-1-yl)-1-thio-β-D-galactopyranoside]
Kd [5]: 370 ± 30 µM | Galectin-3/galectin-1 [5]: 2.6

Cc1ccc(S[C@@H]2O[C@H](CO)[C@H](O)[C@H](n3cc(-c4ccoc4)nn3)[C@H]2O)cc1 [compound 5, p-Methylphenyl 3-deoxy-3-[4-(furan-3-yl)-1H-1,2,3-triazol-1-yl]-1-thio-β-d-galactopyranoside]
Kd [5]: 120 ± 7 µM | Galectin-3/galectin-1 [5]: 2.1

Cc1ccc(S[C@@H]2O[C@H](CO)[C@H](O)[C@H](n3cc(-c4cccs4)nn3)[C@H]2O)cc1 [compound 6, p-Methylphenyl 3-deoxy-3-[4-(thien-2-yl)-1H-1,2,3-triazol-1-yl]-1-thio-β-D-galactopyranoside]
Cytotoxicity [6]: non-cytotoxic | Kd [5]: 61 ± 4 µM | Cytotoxicity [7]: non-cytotoxic | Cytotoxicity [8]: non-cytotoxic

Cc1ccc(S[C@@H]2O[C@H](CO)[C@H](O)[C@H](n3cc(-c4ccsc4)nn3)[C@H]2O)cc1 [compound 7, p-Methylphenyl 3-deoxy-3-[4-(thien-3-yl)-1H-1,2,3-triazol-1-yl]-1-thio-β-D-galactopyranoside]
Cytotoxicity [6]: non-cytotoxic | Kd [5]: 47 ± 2 µM | Cytotoxicity [7]: non-cytotoxic | Cytotoxicity [8]: non-cytotoxic

Cc1ccc(S[C@@H]2O[C@H](CO)[C@H](O)[C@H](n3cc(-c4ncc[nH]4)nn3)[C@H]2O)cc1 [compound 8, p-Methylphenyl 3-deoxy-3-[4-(1H-imidazol-2-yl)-1H-1,2,3-triazol-1-yl]-1-thio-β-D-galactopyranoside]
Kd [5]: 47 ± 3 µM | Galectin-3/galectin-1 [5]: 4.7

Cc1ccc(S[C@@H]2O[C@H](CO)[C@H](O)[C@H](n3cc(-c4c[nH]cn4)nn3)[C@H]2O)cc1 [compound 9, p-Methylphenyl 3-deoxy-3-[4-(1H-imidazol-4-yl)-1H-1,2,3-triazol-1-yl]-1-thio-β-D-galactopyranoside]
Kd [5]: 140 ± 7 µM | Galectin-3/galectin-1 [5]: 2.4

O=C(O)CS[C@@H]1O[C@H](CO)[C@H](O)[C@H](n2cc(-c3ccsc3)nn2)[C@H]1O [compound 12, Carboxymethyl 3-deoxy-3-[4-(thien-3-yl)-1H-1,2,3-triazol-1-yl]-1-thio-β-D-galactopyranoside]
Cytotoxicity [2]: non-cytotoxic | Kd [5]: 58 ± 4 µM | Galectin-3/galectin-1 [5]: 3.4 | Cytotoxicity [3]: non-cytotoxic | Cytotoxicity [4]: non-cytotoxic | Kd [9]: 200 ± 7 µM

O=C(O)CS[C@@H]1O[C@H](CO)[C@H](O)[C@H](n2cc(-c3nccs3)nn2)[C@H]1O [compound 13, Carboxymethyl 3-deoxy-3-[4-(thiazol-2-yl)-1H-1,2,3-triazol-1-yl]-1-thio-β-D-galactopyranoside]
Cytotoxicity [2]: non-cytotoxic | Kd [5]: 43 ± 2 µM | Cytotoxicity [3]: non-cytotoxic | Cytotoxicity [4]: non-cytotoxic | Kd [9]: 280 ± 7 µM

O=C(O)CS[C@@H]1O[C@H](CO)[C@H](O)[C@H](n2cc(-c3cscn3)nn2)[C@H]1O [compound 14, Carboxymethyl 3-deoxy-3-[4-(thiazol-4-yl)-1H-1,2,3-triazol-1-yl]-1-thio-β-D-galactopyranoside]
Cytotoxicity [2]: non-cytotoxic | Kd [5]: 62 ± 2 µM | Galectin-3/galectin-1 [5]: 8.7 | Cytotoxicity [3]: non-cytotoxic | Cytotoxicity [4]: non-cytotoxic | Kd [9]: 540 ± 30 µM

O=C(O)CS[C@@H]1O[C@H](CO)[C@H](O)[C@H](n2cc(-c3cncs3)nn2)[C@H]1O [compound 15, Carboxymethyl 3-deoxy-3-[4-(thiazol-5-yl)-1H-1,2,3-triazol-1-yl]-1-thio-β-D-galactopyranoside]
Kd [5]: 180 ± 9 µM | Galectin-3/galectin-1 [5]: 2.4 | Kd [9]: 430 ± 20 µM

Cc1ccc(S[C@@H]2O[C@H](CO)[C@H](O)[C@H](O)[C@H]2O)cc1 [compound 16, reference compound]
Galectin-3/galectin-1 [5]: 0.2

O=C(O)CS[C@@H]1O[C@H](CO)[C@H](O)[C@H](O)[C@H]1O [compound 17, reference compound]
Kd [5]: 430 ± 40 µM | Galectin-3/galectin-1 [5]: 4.2 | Kd [9]: 1800 ± 100 µM

OC[C@H]1O[C@@H](S[C@@H]2O[C@H](CO)[C@H](O)[C@H](n3cc(-c4nccs4)nn3)[C@H]2O)[C@H](O)[C@@H](n2cc(-c3nccs3)nn2)[C@H]1O [compound 19, 1,1′-Sulfanediyl-bis-{3-deoxy-3-[4-(thiazol-2-yl)-1H-1,2,3-triazol-1-yl]-β-D-galactopyranoside}]
Kd [1]: 0.0084 ± 0.001 µM | Kd Galectin-1 [1]: single-digit | Cytotoxicity [2]: non-cytotoxic | Cytotoxicity [3]: non-cytotoxic | Cytotoxicity [4]: non-cytotoxic

OC[C@H]1O[C@@H](S[C@@H]2O[C@H](CO)[C@H](O)[C@H](n3cc(-c4ncc[nH]4)nn3)[C@H]2O)[C@H](O)[C@@H](n2cc(-c3ncc[nH]3)nn2)[C@H]1O [compound 20, 1,1′-Sulfanediyl-bis-{3-deoxy-3-[4-(1H-imidazol-2-yl)-1H-1,2,3-triazol-1-yl]-β-D-galactopyranoside}]
Increased galectin-1 selectivity compared to corresponding monogalactoside [1]: 2 fold | Lower affinity for galectin-1 than thiophene 1 [1]: 4 fold | Kd [1]: 0.025 ± 0.002 µM | Galectin-3/galectin-1 [1]: 7.2 | Kd [10]: 0.18 ± 0.01 µM

OC[C@H]1O[C@@H](S[C@@H]2O[C@H](CO)[C@H](O)[C@H](n3cc(-c4nccs4)nn3)[C@H]2O)[C@H](O)[C@@H](n2cc(-c3ccsc3)nn2)[C@H]1O [compound 22, 3,3′-Dideoxy-3-[4-(thiazol-2-yl)-1H-1,2,3-triazol-1-yl]-3′-[4-(thien-3-yl)-1H-1,2,3-triazol-1-yl]-1,1′-sulfanediyl-di-β-D-galactopyranoside]
Increased galectin-1 selectivity compared to corresponding monogalactoside [1]: 2 fold | Kd [1]: 0.012 ± 0.001 µM | Galectin-3/galectin-1 [1]: 5.1 | Kd [10]: 0.061 ± 0.003 µM

OC[C@H]1O[C@@H](S[C@@H]2O[C@H](CO)[C@H](O)[C@H](n3cc(-c4nccs4)nn3)[C@H]2O)[C@H](O)[C@@H](n2cc(-c3ccc(F)c(F)c3)nn2)[C@H]1O [compound 23, 3,3′-Dideoxy-3′-[4-(3,4-difluorophenyl)-1H-1,2,3-triazol-1-yl]-3-[4-(thiazol-2-yl)-1H-1,2,3-triazol-1-yl]-1,1′-sulfanediyl-di-β-D-galactopyranoside]
Kd [1]: 0.013 ± 0.001 µM | Galectin-3/galectin-1 [1]: 0.14 | Kd [10]: 0.0018 ± 0.0002 µM
